Experiments:
SF-295 = test: Growth inhibition of human SF295 cells incubated for 48 hrs by sulforhodamine B assay; type: functional; conditions: SF-295, 48 h
HOP-92 = test: Growth inhibition of human HOP92 cells incubated for 48 hrs by sulforhodamine B assay; type: functional; conditions: HOP-92, 48 h
OVCAR-8 = test: Growth inhibition of human OVCAR8 cells incubated for 48 hrs by sulforhodamine B assay; type: functional; conditions: OVCAR-8, 48 h
WI-38 = test: Cytotoxicity against human WI38 cells assessed as reduction in cell viability after 24 hrs by MTT assay; type: cell-based; conditions: WI-38, 24 h
SK-MEL-2 = test: Growth inhibition of human SK-MEL-2 cells incubated for 48 hrs by sulforhodamine B assay; type: functional; conditions: SK-MEL-2, 48 h
HCT-15 = test: Growth inhibition of human HCT15 cells incubated for 48 hrs by sulforhodamine B assay; type: functional; conditions: HCT-15, 48 h
SF-268 = test: Growth inhibition of human SF268 cells incubated for 48 hrs by sulforhodamine B assay; type: functional; conditions: SF-268, 48 h
UO-31 = test: Growth inhibition of human UO31 cells incubated for 48 hrs by sulforhodamine B assay; type: functional; conditions: UO-31, 48 h
A498 = test: Growth inhibition of human A498 cells incubated for 48 hrs by sulforhodamine B assay; type: functional; conditions: A498, 48 h
MCF7 = test: Growth inhibition of human MCF7 cells incubated for 48 hrs by sulforhodamine B assay; type: functional; conditions: MCF7, 48 h
T47D = test: Growth inhibition of human T47D cells incubated for 48 hrs by sulforhodamine B assay; type: functional
NCI-H322M = test: Growth inhibition of human NCI-H322M cells incubated for 48 hrs by sulforhodamine B assay; type: functional
[1] = Inhibition of PTK in human MCF7 cells preincubated for 2 hrs followed by poly-Glu-Tyr substrate addition by ELISA; type: cell-based
MDA-MB-231 = test: Growth inhibition of human MDA-MB-231 cells incubated for 48 hrs by sulforhodamine B assay; type: functional; conditions: MDA-MB-231, 48 h
NCI-H23 = test: Growth inhibition of human NCI-H23 cells incubated for 48 hrs by sulforhodamine B assay; type: functional; conditions: NCI-H23, 48 h
MDA-MB-468 = test: Growth inhibition of human MDA-MB-468 cells incubated for 48 hrs by sulforhodamine B assay; type: functional; conditions: MDA-MB-468, 48 h
A549 = test: Growth inhibition of human A549/ATCC cells incubated for 48 hrs by sulforhodamine B assay; type: functional; conditions: A549, 48 h
IGROV-1 = test: Growth inhibition of human IGROV1 cells incubated for 48 hrs by sulforhodamine B assay; type: functional; conditions: IGROV-1, 48 h
[2] = Safety index, ratio of compound IC50 to 5-fluorouracil IC50 for human WI38 cells; type: ADME, cell-based; conditions: WI-38 cells, read-out: Ratio IC50
[3] = Safety index, ratio of compound IC50 to 5-fluorouracil IC50 for human WISH cells; type: ADME, cell-based; conditions: read-out: Ratio IC50

`N=C(N)c1ccc(-c2ccc(-c3ccc(Cl)cc3)s2)cc1` showed a GI50 (SF-295) of 171 nM, a GI50 (HOP-92) of 156 nM and a GI50 (OVCAR-8) of 223 nM. For the same molecule, the IC50 (WI-38) was 131 µM, the GI50 (SK-MEL-2) was 241 nM and the GI50 (HCT-15) was 171 nM. For the same molecule, the GI50 (SF-268) was 184 nM, the GI50 (UO-31) was 175 nM and the GI50 (A498) was 191 nM. The GI50 (MCF7) was 171 nM, the GI50 (T47D) was 179 nM and the GI50 (NCI-H322M) was 182 nM. For the same molecule, the IC50 [1] was 13 nM, the GI50 (MDA-MB-231) was 184 nM and the GI50 (NCI-H23) was 190 nM. For the same molecule, the GI50 (MDA-MB-468) was 173 nM and the GI50 (A549) was 202 nM.

Molecule `N=C(N)c1ccc(-c2ccc(-c3ccc(Cl)cc3)s2)cc1F` has a GI50 (SF-295) of 691 nM, a GI50 (HOP-92) of 589 nM and a GI50 (OVCAR-8) of 983 nM. It also gave an IC50 (WI-38) of 53.1 µM, a GI50 (IGROV-1) of 611 nM and a GI50 (SK-MEL-2) of 1500 nM. The GI50 (HCT-15) was 172 nM, the GI50 (SF-268) was 197 nM and the GI50 (UO-31) was 1720 nM. The GI50 (A498) was 1380 nM, the selectivity ratio [2] was 6 and the GI50 (MCF7) was 168 nM. The GI50 (NCI-H322M) was 386 nM, the IC50 [1] was 107 nM and the selectivity ratio [3] was 9. For the same molecule, the GI50 (NCI-H23) was 1150 nM, the GI50 (MDA-MB-468) was 215 nM and the GI50 (A549) was 217 nM.

`N=C(N)c1ccc(-c2ccc(-c3ccc(F)cc3)s2)cc1` gave a GI50 (SF-295) of 1660 nM, a GI50 (HOP-92) of 1540 nM and a GI50 (OVCAR-8) of 2110 nM. It also gave an IC50 (WI-38) of 197 µM, a GI50 (IGROV-1) of 1790 nM and a GI50 (SK-MEL-2) of 2050 nM. For the same molecule, the GI50 (HCT-15) was 252 nM, the GI50 (SF-268) was 1540 nM and the GI50 (UO-31) was 1580 nM. For the same molecule, the GI50 (A498) was 1420 nM, the GI50 (MCF7) was 323 nM and the GI50 (T47D) was 1200 nM. The GI50 (NCI-H322M) was 1330 nM, the GI50 (MDA-MB-231) was 1560 nM and the GI50 (NCI-H23) was 1580 nM. The GI50 (MDA-MB-468) was 1260 nM and the GI50 (A549) was 2120 nM.

With `N=C(N)c1ccc(-c2ccc(-c3ccccc3)s2)cc1F` the GI50 (HOP-92) was 1310 nM, the GI50 (OVCAR-8) was 11300 nM and the IC50 (WI-38) was 91.5 µM. It also gave a GI50 (IGROV-1) of 5290 nM, a GI50 (SK-MEL-2) of 4910 nM and a GI50 (HCT-15) of 4620 nM. For the same molecule, the GI50 (SF-268) was 11200 nM, the GI50 (UO-31) was 2680 nM and the GI50 (A498) was 12800 nM. For the same molecule, the GI50 (MCF7) was 3170 nM, the GI50 (T47D) was 5130 nM and the GI50 (NCI-H322M) was 6000 nM. The GI50 (MDA-MB-231) was 3340 nM, the GI50 (NCI-H23) was 11600 nM and the GI50 (MDA-MB-468) was 2040 nM. It also gave a GI50 (A549) of 5100 nM.

`COc1cc(OC)cc(-c2ccc(-c3ccc(C(=N)N)cc3)s2)c1` gave a GI50 (SF-295) of 1820 nM, a GI50 (HOP-92) of 1750 nM and a GI50 (OVCAR-8) of 2480 nM. The IC50 (WI-38) was 73.9 µM, the GI50 (IGROV-1) was 2110 nM and the GI50 (SK-MEL-2) was 1950 nM. It also gave a GI50 (HCT-15) of 1220 nM, a GI50 (SF-268) of 1850 nM and a GI50 (UO-31) of 1770 nM. The GI50 (A498) was 1730 nM, the GI50 (MCF7) was 1220 nM and the GI50 (T47D) was 1650 nM. It also gave a GI50 (NCI-H322M) of 1690 nM, a GI50 (MDA-MB-231) of 2080 nM and a GI50 (NCI-H23) of 1920 nM. It also gave a GI50 (MDA-MB-468) of 1680 nM and a GI50 (A549) of 2580 nM.

`COc1cc(OC)cc(-c2ccc(-c3ccc(C(=N)N)c(F)c3)s2)c1` showed a GI50 (SF-295) of 1590 nM, a GI50 (HOP-92) of 665 nM and a GI50 (OVCAR-8) of 1200 nM. It also gave an IC50 (WI-38) of 123 µM, a GI50 (IGROV-1) of 484 nM and a GI50 (SK-MEL-2) of 1860 nM. The GI50 (HCT-15) was 196 nM, the GI50 (SF-268) was 1150 nM and the GI50 (UO-31) was 473 nM. It also gave a GI50 (A498) of 1330 nM, a GI50 (MCF7) of 194 nM and a GI50 (NCI-H322M) of 502 nM. It also gave an IC50 [1] of 877 nM, a GI50 (NCI-H23) of 1430 nM and a GI50 (MDA-MB-468) of 182 nM. For the same molecule, the GI50 (A549) was 400 nM.

`COc1ccc(-c2ccc(-c3ccc(C(=N)N)c(F)c3)s2)cc1` showed a GI50 (HOP-92) of 1380 nM, a GI50 (OVCAR-8) of 8220 nM and an IC50 (WI-38) of 104 µM. It also gave a GI50 (IGROV-1) of 4380 nM, a GI50 (SK-MEL-2) of 2410 nM and a GI50 (HCT-15) of 2580 nM. The GI50 (SF-268) was 4850 nM, the GI50 (UO-31) was 3170 nM and the GI50 (A498) was 6580 nM. For the same molecule, the GI50 (MCF7) was 2080 nM, the GI50 (T47D) was 2920 nM and the GI50 (NCI-H322M) was 3580 nM. It also gave an IC50 [1] of 920 nM, a GI50 (MDA-MB-231) of 2750 nM and a GI50 (NCI-H23) of 11000 nM. The GI50 (MDA-MB-468) was 1390 nM and the GI50 (A549) was 4760 nM.

Source: ChEMBL document CHEMBL4007388, “Synthesis and antiproliferative activity of monocationic arylthiophene derivatives” (Eur J Med Chem, 2017)
